Measurements: patent US20240408169A1 (priority 2023, published 2024)
*1 amine or outer side, *2 acyl side, *3 side chain or, on linkers, in order; H or OH if unused. Where a SMILES comes first, the peptide text is derived from it. Bridges are numbered along the chain shown (N, C = ends). [ ]: non-standard residue; d: D form. The star is where a group is joined. X73 = CN([C@@H](Cc1cc(Cl)ccc1-c1ccc(N2CCN(Cc3cnn(C)c3)CC2)cc1)C(=O)[*:2])[*:1]; NMePhe(2-(4-MorPh),5-Cl) = CN[C@@H](Cc1cc(Cl)ccc1-c1ccc(N2CCOCC2)cc1)C(=O)O; X107 = CN([C@@H](Cc1cc(Cl)ccc1-c1ccc(-c2cnn(C)c2)cc1)C(=O)[*:2])[*:1]; X12 = CN1CCN(c2ccc(-c3ccc(F)cc3C[C@@H](C(=O)[*:2])N(C)[*:1])cc2)CC1; X97 = CN([C@@H](Cc1cc(Cl)ccc1-c1ccn2ncnc2c1)C(=O)[*:2])[*:1]; NMehhhLys(Me) = CN([C@@H](CCCCCCCN(C)[*:3])C(=O)[*:2])[*:1]; X29 = CN([C@@H](Cc1cc(Cl)ccc1-c1cn[nH]c1)C(=O)[*:2])[*:1]; cBuCO(3,3-F2-1-CF3) = O=C(C1(C(F)(F)F)CC(F)(F)C1)*; Pro(trans-4-F) = O=C(O)[C@@H]1C[C@@H](F)CN1; Gly(cPr) = N[C@H](C(=O)O)C1CC1; X77 = CC(F)(C(=O)*)C(F)(F)F

Experiments:
WI-38 cells = test: MTT proliferation assay, WI-38; assay type: cell-based; conditions: 3 days compound exposure, 1:3 serial dilution starting at 10 μM;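 note: Eight- or ten-point dilution series, with exposure length chosen to span about three to four cell doublings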
CyclinA2/CDK2 = molecular target: T1, CyclinA2/CDK2 (Homo sapiens, UniProt P20248); test: Fluorescence Polarization (FP) competitive binding assay, Cyclin A2/Cdk2; conditions: 8 nM Cyclin A2/Cdk2, 2 nM FAM probe; average of 2-3 independent experiments; read-out: Cyclin A FP IC50;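 note: plates equilibrated two hours at room temperature before polarization reading, IC50 fitted from eight-concentration compound titration curves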
T1 construct: purchased CRELUX Protein Services

OVCAR3 cells = test: MTT proliferation assay, OVCAR3; assay type: cell-based; conditions: 5 days compound exposure, 1:3 serial dilution starting at 10 μM;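 note: compound given as an 8- or 10-point series, one day after plating, with exposure covering roughly 3-4 cell doublings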
CyclinE1/CDK2 = molecular target: T2, CyclinE1/CDK2 (Homo sapiens, UniProt P24864); test: Fluorescence Polarization (FP) competitive binding assay, Cyclin E1/Cdk2; conditions: 10 nM Cyclin E1/Cdk2, 2 nM FAM probe; average of 2-3 independent experiments; read-out: Cyclin E FP IC50;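 note: readings taken after two-hour equilibration at room temperature in HEPES buffer with NaCl, DTT, NP-40 and BSA, IC50 fitted from eight-concentration serial dilution series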
T2 construct: purchased Eurofins, discovery 14-475

NCI-H1048 cells = test: MTT proliferation assay, NCI-H1048; assay type: cell-based; conditions: 5 days compound exposure, 1:3 serial dilution starting at 10 μM;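 note: Dose-response in 96-well plates over 8 or 10 concentration points, with exposure spanning 3-4 cell doublings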
CyclinB1/CDK1 = molecular target: T3, CyclinB1/CDK1 (Homo sapiens, UniProt P14635); test: Fluorescence Polarization (FP) competitive binding assay, Cyclin B1/Cdk1; conditions: 10 nM Cyclin B1/Cdk1, 2 nM FAM probe; average of 2-3 independent experiments; read-out: Cyclin B FP IC50;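 note: fluorescence polarization read after equilibration at room temperature, with IC50 taken from serially diluted dose-response curves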
T3 construct: purchased Eurofins, discovery 14-450

Compound: CC(C)C[C@@H]1NC(=O)[C@@H](N(C)C(=O)[C@@H](NC(=O)[C@@H]2C[C@@H](F)CN2C(=O)C(C)(F)C(F)(F)F)C2CC2)CCCCCCCN(C)C(=O)[C@H](Cc2cc(Cl)ccc2-c2ccc(N3CCOCC3)cc2)N(C)C1=O (stereo partly drawn) [Example 377] (X77-[Pro(trans-4-F)][Gly(cPr)][NMehhhLys(Me)]L[NMePhe(2-(4-MorPh),5-Cl)]; lactam 3-C)
- GI50 (WI-38 cells): 8160 nM
- IC50 (CyclinA2/CDK2): 20 nM
- GI50 (OVCAR3 cells): 10 nM
- IC50 (CyclinE1/CDK2): 340 nM
- GI50 (NCI-H1048 cells): 10 nM
- IC50 (CyclinB1/CDK1): 20 nM

Compound: CC(C)C[C@@H]1NC(=O)[C@@H](N(C)C(=O)[C@@H](NC(=O)[C@@H]2C[C@@H](F)CN2C(=O)C2(C(F)(F)F)CC(F)(F)C2)C2CC2)CCCCCCCN(C)C(=O)[C@H](Cc2cc(F)ccc2-c2ccc(N3CCN(C)CC3)cc2)N(C)C1=O [Example 353] ({cBuCO(3,3-F2-1-CF3)}-[Pro(trans-4-F)][Gly(cPr)][NMehhhLys(Me)]L[X12]; lactam 3-C)
- GI50 (WI-38 cells): 3490 nM
- IC50 (CyclinA2/CDK2): 20 nM
- GI50 (OVCAR3 cells): 10 nM
- IC50 (CyclinE1/CDK2): 220 nM
- GI50 (NCI-H1048 cells): 10 nM
- IC50 (CyclinB1/CDK1): 20 nM

Compound: CC(=O)N1[C@H]2CC[C@@H]1C=C(c1ccc(Cl)cc1C[C@H]1C(=O)N(C)CCCCCCC[C@H](N(C)C(=O)[C@@H](NC(=O)[C@@H]3C[C@@H](F)CN3C(=O)C3(C(F)(F)F)CC(F)(F)C3)C3CC3)C(=O)N[C@@H](CC(C)C)C(=O)N1C)C2 (single isomer, unassigned) [Example 57-P1]
- GI50 (WI-38 cells): 13800 nM
- IC50 (CyclinA2/CDK2): 20 nM
- GI50 (OVCAR3 cells): 10 nM
- IC50 (CyclinE1/CDK2): 1410 nM
- GI50 (NCI-H1048 cells): 10 nM
- IC50 (CyclinB1/CDK1): 20 nM

Compound: CC(C)C[C@@H]1NC(=O)[C@@H](N(C)C(=O)[C@@H](NC(=O)[C@@H]2C[C@@H](F)CN2C(=O)C2(C(F)(F)F)CC(F)(F)C2)C2CC2)CCCCCCCN(C)C(=O)[C@H](Cc2cc(Cl)ccc2-c2ccc(N3CCN(Cc4cnn(C)c4)CC3)cc2)N(C)C1=O [Example 372] ({cBuCO(3,3-F2-1-CF3)}-[Pro(trans-4-F)][Gly(cPr)][NMehhhLys(Me)]L[X73]; lactam 3-C)
- GI50 (WI-38 cells): 2840 nM
- IC50 (CyclinA2/CDK2): 20 nM
- GI50 (OVCAR3 cells): 10 nM
- IC50 (CyclinE1/CDK2): 430 nM
- GI50 (NCI-H1048 cells): 10 nM
- IC50 (CyclinB1/CDK1): 20 nM

Compound: CC(C)C[C@@H]1NC(=O)[C@@H](N(C)C(=O)[C@@H](NC(=O)[C@@H]2C[C@@H](F)CN2C(=O)C2(C(F)(F)F)CC(F)(F)C2)C2CC2)CCCCCCCN(C)C(=O)[C@H](Cc2cc(Cl)ccc2-c2ccc(-c3cnn(C)c3)cc2)N(C)C1=O [Example 338] ({cBuCO(3,3-F2-1-CF3)}-[Pro(trans-4-F)][Gly(cPr)][NMehhhLys(Me)]L[X107]; lactam 3-C)
- GI50 (WI-38 cells): 18900 nM
- IC50 (CyclinA2/CDK2): 30 nM
- GI50 (OVCAR3 cells): 20 nM
- IC50 (CyclinE1/CDK2): 1700 nM
- GI50 (NCI-H1048 cells): 20 nM
- IC50 (CyclinB1/CDK1): 20 nM

Compound: CC(C)C[C@@H]1NC(=O)[C@@H](N(C)C(=O)[C@@H](NC(=O)[C@@H]2C[C@@H](F)CN2C(=O)C2(C(F)(F)F)CCC2)C2CC2)CC=CCCCCNC(=O)[C@H](Cc2cc(Cl)cnc2OC(C)C)N(C)C1=O (single isomer, unassigned) [Example 136-P1]
- GI50 (WI-38 cells): 3960 nM
- IC50 (CyclinA2/CDK2): 140 nM
- GI50 (OVCAR3 cells): 1770 nM
- IC50 (CyclinE1/CDK2): 320 nM
- GI50 (NCI-H1048 cells): 830 nM
- IC50 (CyclinB1/CDK1): 20 nM

Compound: CC(C)C[C@@H]1NC(=O)[C@@H](N(C)C(=O)[C@@H](NC(=O)[C@@H]2C[C@@H](F)CN2C(=O)C2(C(F)(F)F)CC(F)(F)C2)C2CC2)CCCCCCCN(C)C(=O)[C@H](Cc2cc(Cl)ccc2-c2cn[nH]c2)N(C)C1=O [Example 167] ({cBuCO(3,3-F2-1-CF3)}-[Pro(trans-4-F)][Gly(cPr)][NMehhhLys(Me)]L[X29]; lactam 3-C)
- GI50 (WI-38 cells): 19700 nM
- IC50 (CyclinA2/CDK2): 20 nM
- GI50 (OVCAR3 cells): 10 nM
- IC50 (CyclinE1/CDK2): 280 nM
- GI50 (NCI-H1048 cells): 10 nM
- IC50 (CyclinB1/CDK1): 20 nM

Compound: CC(C)C[C@@H]1NC(=O)[C@@H](N(C)C(=O)[C@@H](NC(=O)[C@@H]2C[C@@H](F)CN2C(=O)C2(C(F)(F)F)CC(F)(F)C2)C2CC2)CCCCCCCN(C)C(=O)[C@H](Cc2cc(Cl)ccc2-c2ccn3ncnc3c2)N(C)C1=O [Example 179] ({cBuCO(3,3-F2-1-CF3)}-[Pro(trans-4-F)][Gly(cPr)][NMehhhLys(Me)]L[X97]; lactam 3-C)
- GI50 (WI-38 cells): 11600 nM
- IC50 (CyclinA2/CDK2): 30 nM
- GI50 (OVCAR3 cells): 30 nM
- IC50 (CyclinE1/CDK2): 1130 nM
- GI50 (NCI-H1048 cells): 10 nM
- IC50 (CyclinB1/CDK1): 20 nM
